Laboratory results: patent US6229016A, “Method for treating tumors using 2-aryl-naphthyridin-4-ones” (priority 2000, dated 2001)

Experiments:
Type in all cases: cell-based
[1] = tested on: NCI's 60 human tumor cell line; experiment: NCI 60 human tumor cell line in vitro screen (average / whole panel); settings: calculated from all cell lines tested, molar concentrations, read-out: average log GI50 (converted)
[2] = tested on: HL-60(TB) leukemia cell line; experiment: cells; settings: Homo sapiens; HL-60(TB); read-out: Cytotoxicity log GI50 (converted)
[3] = tested on: NCI-H460 non-small cell lung cancer cell line; experiment: NCI in vitro screen, non-small cell lung cancer NCI-H460; settings: Homo sapiens, read-out: Cytotoxicity log GI50 (converted)
[4] = tested on: HCT-116 colon cancer cell line; experiment: NCI in vitro screen, colon cancer HCT-116; settings: Homo sapiens; HCT-1.16 (head); HCT-116 (footnote); read-out: Cytotoxicity log GI50 (converted)
[5] = tested on: SF-295 CNS cancer cell line; experiment: NCI in vitro screen, CNS cancer SF-295; settings: Homo sapiens, read-out: Cytotoxicity log GI50 (converted)
[6] = tested on: U-251 CNS cancer cell line; experiment: NCI in vitro screen, CNS cancer U-251; settings: Homo sapiens, read-out: Cytotoxicity log GI50 (converted)
[7] = tested on: SK-MEL-5 melanoma cell line; experiment: NCI in vitro screen, melanoma SK-MEL-5; settings: Homo sapiens, read-out: Cytotoxicity log GI50 (converted)
Excerpt: (§1) Compounds 41-51 and 53-68 were submitted to NCI and assayed in the NCI's in vitro disease-oriented antitumor screen, which involves determination of a test compound's effects on the growth of approximately 60 human tumor cell lines. See, M. R. Boyd, et al. In Cancer: Principles and Practice of Oncology Updates; De Vita, V. T., Hellman, S., Rosenberg, S. A., Eds; J. B. Lippincoft: Philadelphia, pp 1-12 (1989); and A. Monks, et al. J. Natl. Cancer Inst. 83:757 (1991). These lines include leukemia, non-small cell lung, colon, central nervous system (CNS), melanoma, ovarian, renal, prostate, and breast cancers.
(§2) Compounds 29'-51' were submitted to NCI and assayed in the NCI's in vitro disease-oriented antitumor screen, using the techniques described in Example 5. This assay involves determinations of a test agent's effect on growth parameters against a panel of approximately 60 human tumor cell lines, derived largely from solid tumors, including non-small cell lung, colon, central nervous system, renal, ovarian, prostate, and breast cancers, plus a few leukemia cell lines. The cytotoxic effects of each compound are obtained as GI50 or […] values, which represent the molar drug concentrations required to cause half growth inhibition and total growth inhibition, respectively. The results are expressed for each cell line as average log GI50 values in Table 4, as log GI50 values in Table 5, and as log TGI values and average log TGI values in Table 6.

[8] = tested on: OVCAR-3 ovarian cancer cell line; experiment: NCI in vitro screen, ovarian cancer OVCAR-3; settings: Homo sapiens, read-out: Cytotoxicity log GI50 (converted)
[9] = tested on: 786-0 renal cancer cell line; experiment: NCI in vitro screen, renal cancer 786-0; settings: Homo sapiens, read-out: Cytotoxicity log GI50 (converted)
Excerpt: as §1, §2

[10] = tested on: PC-3 prostate cancer cell line; experiment: NCI in vitro screen, prostate cancer PC-3; settings: Homo sapiens, read-out: Cytotoxicity log GI50 (converted)
Excerpt: as §1, §2

[11] = tested on: MDA-MB-435 breast cancer cell line; experiment: NCI in vitro screen, breast cancer MDA-MB-435; settings: Homo sapiens, read-out: Cytotoxicity log GI50 (converted)
[12] = tested on: MDA-N breast cancer cell line; experiment: NCI in vitro screen, breast cancer MDA-N; settings: Homo sapiens, read-out: Cytotoxicity log GI50 (converted)
Excerpt: as §1, §2

Row | Structure (SMILES) | GI50 [1] [nM] | GI50 [2] [nM] | GI50 [3] [nM] | GI50 [4] [nM] | GI50 [5] [nM] | GI50 [6] [nM] | GI50 [7] [nM] | GI50 [8] [nM] | GI50 [9] [nM] | GI50 [10] [nM] | GI50 [11] [nM] | GI50 [12] [nM]
1 | Cc1ccc2c(n1)N=C(c1cccc3ccccc13)CC2=O [Compound 45, 2-(α-Naphthyl)-7-methyl-1,8-naphthyridin-4-one] | 66.1 | < 10 | 17.4 | < 10 | 24 | 15.5 | 13.8 | < 10 | 6030 | 30.2 | < 10 | < 10
2 | COc1cccc(-c2cc(=O)c3c(C)ccnc3[nH]2)c1 [Compound 45] | 58.9 | 12.9 | 47.9 | 44.7 | 28.8 | 58.9 | 22.4 | 25.7 | 51.3 | 26.3 | < 10 | < 10
3 | Cc1cc(C)c2c(n1)N=C(c1cccc3ccccc13)CC2=O [Compound 46, 2-(α-Naphthyl)-5,7-dimethyl-1,8-naphthyridin-4-one] | 1050 | 245 | 631 | 380 | 589 | 372 | 468 | 347 | 9550 | 759 | 191 | 234
4 | O=C1CC(c2ccc3ccccc3c2)=Nc2ncccc21 [Compound 47, 2-(β-Naphthyl)-1,8-naphthyridin-4-one] | 8130 | 1820 | 3800 | 3800 | 9120 | 4370 | 3470 | 8320 | 5620 | 10500 | 1780 | 1660
5 | Cc1ccnc2c1C(=O)CC(c1ccc3ccccc3c1)=N2 [Compound 48, 2-(β-Naphthyl)-5-methyl-1,8-naphthyridin-4-one] | 1200 | 204 | 1120 | 427 | 1480 | 646 | 437 | 1290 | 2400 | 1380 | 204 | 204
6 | COc1cccc(-c2cc(=O)c3c(C)cc(C)nc3[nH]2)c1 [Compound 48] | 646 | 174 | 447 | 407 | 417 | 170 | 288 | 251 | 437 | 309 | < 10 | < 10
7 | Cc1cnc2c(c1)C(=O)CC(c1ccc3ccccc3c1)=N2 [Compound 49, 2-(β-Naphthyl)-6-methyl-1,8-naphthyridin-4-one] | 741 | 141 | 398 | 468 | 550 | 468 | 363 | 355 | 617 | 407 | 105 | 132
8 | Cc1ccc2c(n1)N=C(c1ccc3ccccc3c1)CC2=O [Compound 50, 2-(β-Naphthyl)-7-methyl-1,8-naphthyridin-4-one] | 4570 | 1780 | 3800 | 3980 | 3800 | 4570 | 3310 | 3630 | 5370 | 2630 | 1580 | 1950
9 | Cc1cc(C)c2c(=O)cc(-c3ccc4ccccc4c3)[nH]c2n1 [Compound 51, 2-(β-Naphthyl)-5,7-methyl-1,8-naphthyridin-4-one] | 13500 | 3470 | 13200 | 12600 | 14800 | 15800 | 2190 | 20000 | 51300 | 5500 | 2950 | 3240
